Laboratory results reported in patent US10202371B2, “Oxazolidin-2-one-pyrimidine derivatives and the use thereof as phosphatidylinositol-3-kinase inhibitors” (Novartis AG, priority 2012, dated 2019).

Experiments:
[1] = molecular target: human PI3Kbeta p110 catalytic subunit (Rat-1 cells) (Homo sapiens (Human), UniProt P42338); assay: Cellular assay PI3Kbeta, p-Akt(S473) SureFire in Rat-1_PI3Kbeta cells; type: cell-based; conditions: p-AKT(Ser473), 1 h treatment; read-out: Rat1-PI3Kb/IC50
Excerpt: AlphaScreen (Amplified Luminescent Proximity Homogeneous Assay, ALPHA, Perkin Elmer) is a non-radioactive bead-based proximity assay technology to study biomolecular interactions in a homogenous microtiter plate format. The brand name SureFire denotes AlphaScreen assays that are adapted to quantify the phosphorylation of endogenous cellular proteins in cell lysates, by using matched antibody pairs, which consist of an anti-phospho-kinase and an anti-kinase antibody. The assay allows characterization of kinase signaling in cells as well as measurement of kinase inhibitor effects. The AlphaScreen technology provides several advantages over standard assay techniques such as ELISA, as it avoids time-consuming washing procedures and reduces plate handling. Furthermore, it is miniaturizable at least to a 384-well format and provides sensitivity down to the femtomolar range, dependent on the affinity of the antibodies included in the individual AlphaScreen SureFire assay kit. High sensitivity is reached by an intrinsic amplification mechanism, which involves production of singlet oxygen molecules. SureFire assay kits are commercially available for specific targets and include pairs of validated antibodies (PerkinElmer). This report describes common procedures applied for AlphaScreen SureFire assays and respective semi-automated steps for routine kinase inhibitor profiling in cell-based assays.
The Rat-1 cell lines stably overexpressing activated PI3K class I isoforms Rat-1 pBABEpuro Myr-HA-hp110 delta (Rat-1_PI3Kdelta) and Rat-1 pBABEpuro Myr-HA-hp110alpha (Rat-1_PI3Kalpha) and Rat-1 pBABEpuro Myr-HA-hp110 beta (Rat-1_PI3beta) were prepared as described (Maira S M, Stauffer F, Brueggen J, Furet P, Schnell C, Fritsch C, Brachmann S, Chène P, de Pover A, Schoemaker K, Fabbro D, Gabriel D, Simonen M, Murphy L, Finan P, Sellers W, Garcia-Echeverria C (2008), Mol Cancer Ther. 7:1851-63 and Maira S M, Pecchi S, Brueggen J, Huh K, Schnell C, Fritsch C, Nagel T, Wiesmann M, Brachmann S, Dorsch M, Chène P, Schoemaker K, De Pover A, Menezes D, Fabbro D, Sellers W, Garcia-Echeverria C, Voliva CF (2011), Mol. Cancer Ther., accepted). All cell lines were cultivated in complete growth medium (DMEM high glucose, 10% (v/v) fetal bovine serum, 1% (v/v) MEM NEAA, 10 mM HEPES, 2 mM L-glutamine, puromycin (10 μg/mL for Rat-1_PI3Kdelta and Rat-1_PI3Kalpha, 4 ug/mL for Rat-1_PI3beta), 1% (v/v) Pen/Strep) to 90% confluency at 37° C./5% CO2/90% humidity in a humidified CO2 incubator and were split twice a week. […]

[2] = In vitro skin penetration and permeation, pig skin in Franz-type diffusion cells; type: in vitro ADME; conditions: for Permeation rate: pig skin, 48 hours exposure
Protocol: The compound was applied as 0.5% solutions in propylene glycol mixed with either ethanol or oleylalcohol to pig skin mounted in static Franz-type diffusion cells. At the end of a 48 hours exposure time, drug concentrations were measured in the skin (after removal of stratum corneum) and in the receiver. The receiver solution is a mixture of two volume parts of phosphate-buffered saline (PBS) and one volume part of fetal calf serum (FCS).

Chain of human PI3Kbeta p110 catalytic subunit (Rat-1 cells) (P42338 whole entry): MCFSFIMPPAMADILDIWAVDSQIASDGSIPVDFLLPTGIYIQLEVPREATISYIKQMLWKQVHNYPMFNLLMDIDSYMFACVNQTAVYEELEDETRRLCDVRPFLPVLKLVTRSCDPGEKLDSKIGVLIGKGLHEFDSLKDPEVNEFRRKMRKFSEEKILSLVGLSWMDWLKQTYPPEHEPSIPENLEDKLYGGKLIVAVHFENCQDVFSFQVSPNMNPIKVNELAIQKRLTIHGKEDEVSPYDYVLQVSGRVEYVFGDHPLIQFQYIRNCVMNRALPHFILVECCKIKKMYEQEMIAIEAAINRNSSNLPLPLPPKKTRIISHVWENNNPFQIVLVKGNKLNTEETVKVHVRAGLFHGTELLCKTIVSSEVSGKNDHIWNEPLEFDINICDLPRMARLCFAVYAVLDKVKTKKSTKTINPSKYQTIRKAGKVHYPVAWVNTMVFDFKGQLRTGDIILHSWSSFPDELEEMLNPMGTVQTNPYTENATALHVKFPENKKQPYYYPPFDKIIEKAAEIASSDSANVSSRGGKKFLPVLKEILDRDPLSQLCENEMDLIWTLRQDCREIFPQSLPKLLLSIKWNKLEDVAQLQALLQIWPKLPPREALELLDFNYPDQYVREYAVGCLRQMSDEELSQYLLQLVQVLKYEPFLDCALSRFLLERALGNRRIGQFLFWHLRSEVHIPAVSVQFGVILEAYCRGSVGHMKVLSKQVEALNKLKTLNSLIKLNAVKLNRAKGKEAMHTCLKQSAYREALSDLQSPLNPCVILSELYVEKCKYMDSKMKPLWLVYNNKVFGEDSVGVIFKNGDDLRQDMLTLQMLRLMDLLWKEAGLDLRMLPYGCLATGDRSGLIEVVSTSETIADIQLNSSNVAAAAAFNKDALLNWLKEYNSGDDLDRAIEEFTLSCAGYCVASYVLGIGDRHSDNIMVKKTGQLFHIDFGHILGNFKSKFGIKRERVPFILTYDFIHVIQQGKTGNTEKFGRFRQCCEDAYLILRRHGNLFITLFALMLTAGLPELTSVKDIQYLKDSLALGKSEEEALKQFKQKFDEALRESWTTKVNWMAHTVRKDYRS
Chain of human PI3Kbeta p110 catalytic subunit (Rat-1 cells) (Q63787 whole entry partner): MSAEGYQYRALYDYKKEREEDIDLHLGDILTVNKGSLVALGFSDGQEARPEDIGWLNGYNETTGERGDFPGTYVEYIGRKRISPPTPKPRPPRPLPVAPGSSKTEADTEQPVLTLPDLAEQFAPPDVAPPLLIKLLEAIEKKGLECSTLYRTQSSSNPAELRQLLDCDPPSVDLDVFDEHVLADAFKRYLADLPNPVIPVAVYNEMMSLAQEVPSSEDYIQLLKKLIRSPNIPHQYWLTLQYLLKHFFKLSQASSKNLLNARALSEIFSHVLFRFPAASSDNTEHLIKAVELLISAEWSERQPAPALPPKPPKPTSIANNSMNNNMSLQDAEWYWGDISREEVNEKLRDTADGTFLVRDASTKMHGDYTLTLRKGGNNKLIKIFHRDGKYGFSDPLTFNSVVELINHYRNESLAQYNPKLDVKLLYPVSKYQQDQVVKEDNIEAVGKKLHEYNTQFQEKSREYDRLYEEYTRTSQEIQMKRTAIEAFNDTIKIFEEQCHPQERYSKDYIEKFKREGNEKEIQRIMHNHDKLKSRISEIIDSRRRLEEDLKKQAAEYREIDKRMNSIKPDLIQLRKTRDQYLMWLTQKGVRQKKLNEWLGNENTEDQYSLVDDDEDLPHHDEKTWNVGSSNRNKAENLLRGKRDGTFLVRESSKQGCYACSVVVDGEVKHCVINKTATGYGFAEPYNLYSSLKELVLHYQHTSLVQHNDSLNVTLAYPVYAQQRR

| SMILES | IC50 [1] | other results |
| --- | --- | --- |
| CC[C@H]1[C@H](c2ccc(OC)cc2)OC(=O)N1c1cc(-c2cnc(N)nc2C(F)(F)F)nc(N2CCOCC2)n1 (relative stereo) [Example 2, (4S*,5S*)-3-(2′-amino-2-morpholino-4′-(trifluoromethyl)-[4,5′-bipyrimidin]-6-yl)-4-ethyl-5-(4-methoxyphenyl)oxazolidin-2-one] | 751 nM | – |
| COc1ccc([C@@H]2OC(=O)N(c3cc(-c4cnc(N)nc4C(F)(F)F)nc(N4CCOCC4)n3)[C@H]2CO)cc1 [Example 3, (4S,5S)-3-(2′-Amino-2-morpholino-4′-(trifluoromethyl)-[4,5′-bipyrimidin]-6-yl)-4-(hydroxymethyl)-5-(4-methoxyphenyl)oxazolidin-2-one] | 33 nM | – |
| C[C@H]1[C@H](c2nccs2)OC(=O)N1c1cc(-c2cnc(N)nc2C(F)(F)F)nc(N2CCOCC2)n1 [Example 1, (4S,5R)-3-(2′-Amino-2-morpholin-4-yl-4′-trifluoromethyl-[4,5′]bipyrimidinyl-6-yl)-4-methyl-5-thiazol-2-yl-oxazolidin-2-one] | – | permeation rate through pig skin (in words) ([2]; pig skin in vitro): low; Permeation rate ([2]; 0.5% in PG + ethanol (7 + 3)): 1.0 ± 0.3 ng/cm^2/hr; Permeation rate ([2]; 0.5% in PG/OA (9 + 1)): 301.1 ± 129.5 ng/cm^2/hr |
| Nc1ncc(-c2cc(N3C(=O)O[C@@H](c4ccccc4)[C@@H]3CO)nc(N3CCOCC3)n2)c(C(F)(F)F)n1 [Example 10] | 23 nM | – |
| C[C@H]1[C@@H](c2nccs2)OC(=O)N1c1cc(-c2cnc(N)nc2C(F)(F)F)nc(N2CCOCC2)n1 [Example 11] | 26 nM | – |
| CCC1C(c2cccnc2)OC(=O)N1c1cc(-c2cnc(N)nc2C(F)(F)F)nc(N2CCOCC2)n1 (centres unmarked) [Example 8] | 26 nM | – |
